# Laboratory results from ChEMBL document CHEMBL4334432, “Development of benzochalcone derivatives as selective CYP1B1 inhibitors and anticancer agents” (Medchemcomm, 2019).
# Tested on: MDA-MB-231
# Assay: cells
# Conditions: Homo sapiens, MDA-MB-231, 48 h
# Description: Cytotoxicity against human MDA-MB-231 cells assessed as reduction in cell viability after 48 hrs by MTT assay
row,Structure (SMILES),IC50 [nM]
1,O=c1[nH]cc(F)c(=O)[nH]1 [FLUOROURACIL],93800
2,O=c1cc(-c2ccccc2)oc2c1ccc1ccccc12 [ALPHA-NAPHTHOFLAVONE],> 100000
3,O=C(/C=C/c1ccccc1)c1ccc2ccccc2c1,34100

# Target: T1, Cytochrome P450 1A2 (Homo sapiens, UniProt P05177)
# T1 sequence (P05177 whole entry): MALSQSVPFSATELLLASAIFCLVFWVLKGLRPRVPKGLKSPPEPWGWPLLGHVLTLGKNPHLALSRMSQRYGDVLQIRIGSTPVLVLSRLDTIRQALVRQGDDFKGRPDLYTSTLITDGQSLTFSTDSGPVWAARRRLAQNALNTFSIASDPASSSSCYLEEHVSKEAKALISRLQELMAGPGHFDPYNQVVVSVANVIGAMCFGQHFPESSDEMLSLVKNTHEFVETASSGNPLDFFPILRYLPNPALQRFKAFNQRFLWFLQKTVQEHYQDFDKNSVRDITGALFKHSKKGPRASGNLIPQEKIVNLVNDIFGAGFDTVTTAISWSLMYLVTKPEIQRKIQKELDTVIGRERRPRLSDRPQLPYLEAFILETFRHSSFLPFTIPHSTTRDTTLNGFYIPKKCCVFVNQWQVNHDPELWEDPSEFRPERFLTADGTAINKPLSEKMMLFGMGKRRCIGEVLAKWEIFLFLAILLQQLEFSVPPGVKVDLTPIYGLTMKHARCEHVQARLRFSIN
# Assay: Inhibition of recombinant human CYP1A2 expressed in supersomes using 7-ethoxyresorufin as substrate after 50 mins in presence of NADP+ by EROD assay
# Assay type: ADME
# Conditions: not given
row,Structure (SMILES),IC50 [nM]
1,O=C(/C=C/c1ccccc1Cl)c1ccc2ccccc2c1O,> 1000
2,O=C(/C=C/c1cccc(F)c1)c1ccc2ccccc2c1O,> 1000
3,O=C(CCc1ccccc1)c1ccc2ccccc2c1O,> 1000
4,O=C(/C=C/c1ccncc1)c1ccc2ccccc2c1O,> 1000
5,O=C(/C=C/c1cccc(Cl)c1)c1ccc2ccccc2c1O,> 1000
6,Nc1nc(-c2ccccc2)cc(-c2ccc3ccccc3c2)n1,> 1000
7,Nc1c(C(=O)/C=C/c2ccccc2)ccc2ccccc12,> 1000
8,O=C(/C=C/c1ccccc1)c1ccc2ccccc2c1O,> 1000
9,O=C(/C=C/c1ccccc1O)c1ccc2ccccc2c1O,> 1000
10,O=C(/C=C/c1ccc(Cl)cc1)c1ccc2ccccc2c1O,> 1000
11,O=C(/C=C/c1ccccn1)c1ccc2ccccc2c1O,> 1000
12,COc1c(C(=O)/C=C/c2ccccc2)ccc2ccccc12,> 1000
13,COc1ccc(OC)c2c(OC)c(/C=C/C(=O)c3ccc4ccccc4c3O)cc(OC)c12,> 1000
14,O=C(/C=C/c1cccnc1)c1ccc2ccccc2c1O,227
15,O=C(/C=C/c1ccc(F)cc1)c1ccc2ccccc2c1O,> 1000
16,O=C(/C=C/c1ccc[nH]1)c1ccc2ccccc2c1O,> 1000
17,COc1ccccc1/C=C/C(=O)c1ccc2ccccc2c1O,> 1000
18,O=C(/C=C/c1ccccc1F)c1ccc2ccccc2c1O,> 1000
19,COc1ccc(OC)c2c(O)c(C(=O)/C=C/c3ccccc3)cc(OC)c12,735
20,O=C(/C=C/c1ccccc1)c1ccc2ccccc2c1,> 1000

# Tested on: MCF7
# Assay: cells
# Conditions: Homo sapiens, MCF7, 48 h
# Description: Cytotoxicity against human MCF7 cells assessed as reduction in cell viability after 48 hrs by MTT assay
row,Structure (SMILES),IC50 [nM]
1,O=c1[nH]cc(F)c(=O)[nH]1 [FLUOROURACIL],> 100000
2,O=c1cc(-c2ccccc2)oc2c1ccc1ccccc12 [ALPHA-NAPHTHOFLAVONE],80700
3,O=C(/C=C/c1ccccc1)c1ccc2ccccc2c1,24700

# Tested on: MCF7
# Assay: Cytotoxicity against drug-resistant […]-induced human MCF7 cells overexpressing CYP1B1 assessed as reduction in cell viability after 48 hrs by MTT assay
# Assay type: functional, cell-based
# Conditions: MCF7, 48 h
row,Structure (SMILES),IC50 [nM]
1,O=c1[nH]cc(F)c(=O)[nH]1 [FLUOROURACIL],> 100000
2,O=c1cc(-c2ccccc2)oc2c1ccc1ccccc12 [ALPHA-NAPHTHOFLAVONE],> 100000
3,O=C(/C=C/c1ccccc1)c1ccc2ccccc2c1,18200

# Tested on: not listed separately
# Assay: Cytotoxicity against drug-resistant human MDA-MB-435/LCC6MDR1 cells assessed as reduction in cell viability after 48 hrs by MTT assay
# Assay type: functional, cell-based
# Conditions: MDA-MB-435/LCC6 MDR1, 48 h
row,Structure (SMILES),IC50 [nM]
1,O=c1[nH]cc(F)c(=O)[nH]1 [FLUOROURACIL],> 100000
2,O=c1cc(-c2ccccc2)oc2c1ccc1ccccc12 [ALPHA-NAPHTHOFLAVONE],82300
3,O=C(/C=C/c1ccccc1)c1ccc2ccccc2c1,19400

# Target: T2, Cytochrome P450 1A1 (Homo sapiens, UniProt P04798)
# T2 sequence (P04798 whole entry): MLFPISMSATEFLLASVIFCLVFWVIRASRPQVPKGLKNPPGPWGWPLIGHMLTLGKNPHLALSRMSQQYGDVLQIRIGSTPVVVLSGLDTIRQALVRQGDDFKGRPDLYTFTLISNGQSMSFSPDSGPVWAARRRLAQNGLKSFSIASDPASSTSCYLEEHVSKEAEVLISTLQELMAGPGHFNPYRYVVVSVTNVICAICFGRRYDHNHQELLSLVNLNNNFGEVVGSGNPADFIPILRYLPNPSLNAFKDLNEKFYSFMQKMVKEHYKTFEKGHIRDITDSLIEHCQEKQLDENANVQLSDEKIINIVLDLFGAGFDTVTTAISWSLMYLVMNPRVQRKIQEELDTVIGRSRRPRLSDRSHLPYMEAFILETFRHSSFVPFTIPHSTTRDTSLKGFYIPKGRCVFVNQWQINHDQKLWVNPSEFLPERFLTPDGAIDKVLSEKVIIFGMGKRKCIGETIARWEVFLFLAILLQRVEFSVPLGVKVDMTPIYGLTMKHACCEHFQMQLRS
# Assay: Inhibition of recombinant human CYP1A1 expressed in supersomes using 7-ethoxyresorufin as substrate after 15 mins in presence of NADP+ by EROD assay
# Assay type: ADME
# Conditions: not given
row,Structure (SMILES),IC50 [nM]
1,O=c1cc(-c2ccccc2)oc2c1ccc1ccccc12 [ALPHA-NAPHTHOFLAVONE],80.3
